The text below walks through data of patent US20230167070A1, “MODULATORS OF TREX1” (Constellation Pharmaceuticals, Inc., priority 2020, published 2023).

For test [1], the target named is T1, full length human TREX1 (Homo sapiens, UniProt Q9NSU2).
T1 construct: N-terminally His-Tev tagged full length human TREX1; made in house; host or cells: E. coli
T1 sequence (Q9NSU2 1-314): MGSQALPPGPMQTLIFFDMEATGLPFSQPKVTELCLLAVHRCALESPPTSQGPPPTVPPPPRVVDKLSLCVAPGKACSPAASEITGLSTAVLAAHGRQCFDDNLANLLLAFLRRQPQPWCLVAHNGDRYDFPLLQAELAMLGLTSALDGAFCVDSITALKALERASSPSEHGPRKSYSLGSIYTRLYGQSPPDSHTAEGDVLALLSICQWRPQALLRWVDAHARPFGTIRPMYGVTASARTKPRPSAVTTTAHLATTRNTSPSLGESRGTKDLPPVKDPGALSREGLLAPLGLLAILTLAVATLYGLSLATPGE
As to the kind of experiment: TREX1 Biochemical Assay (fluorescence, dsDNA substrate degradation). The following applies: 150 pM TREX1, 60 nM dsDNA substrate, 25 minutes at room temperature. As to the method:
Degradation of the dsDNA liberates free fluorophore to produce a fluorescent signal. Specifically, 7.5 μL of N-terminally His-Tev tagged full length human TREX1 (expressed in E. coli and purified in house) in reaction buffer (50 mM Tris (pH 7.4), 150 mM NaCl, 2 mM DTT, 0.1 mg/mL BSA, 0.01% (v/v) Tween-20 and 100 mM MgCl2) was added to a 384-well Black ProxiPlate Plus (Perkin Elmer) which already contained compound (150 nL) at varying concentrations as a 10 point dose-response in DMSO. To this was added 7.5 μL of dsDNA substrate (Strand A: 5′ TEX615/GCT AGG CAG 3′; Strand B: 5′ CTG CCT AGC/IAbRQSp (Integrated DNA Technologies)) in reaction buffer. Final concentrations were 150 pM TREX1, 60 nM dsDNA substrate in reaction buffer with 1.0% DMSO (v/v). After 25 minutes at room temperature, reactions were quenched by the addition of 5 μL of stop buffer (same as reaction buffer plus 200 mM EDTA). Final concentrations in the quenched reaction were 112.5 pM TREX1, 45 nM DNA and 50 mM EDTA in a volume of 20 μL. After a 5-minute incubation at room temperature, plates were read in a laser sourced Envision (Perkin-Elmer), measuring fluorescence at 615 nm following excitation w/570 nm light. IC50 values were calculated by comparing the measured fluorescence at 615 nm ratio relative to control wells pre-quenched w/stop buffer (100% inhibition) and no inhibitor (0% inhibition) controls as using non-linear least square four parameter fits and either Genedata or GraphPad Prism (GraphPad Software, Inc.).

Test [2] concerns the target T2, human TREX2 (residues M44-A279) (Homo sapiens, UniProt Q9BQ50).
T2 construct: human TREX2 (residues M44-A279, expressed in E. coli); made in house; host or cells: E. coli
T2 sequence (Q9BQ50 44-279 isoform Q9BQ50-1): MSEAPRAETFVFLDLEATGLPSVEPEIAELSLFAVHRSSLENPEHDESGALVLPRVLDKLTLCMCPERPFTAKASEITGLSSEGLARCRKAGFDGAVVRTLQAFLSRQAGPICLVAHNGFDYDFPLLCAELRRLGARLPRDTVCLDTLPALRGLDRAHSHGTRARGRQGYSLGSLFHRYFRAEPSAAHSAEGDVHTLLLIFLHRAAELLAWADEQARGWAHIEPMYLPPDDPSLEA
As to the kind of experiment: TREX2 Biochemical Assay (fluorescence, dsDNA substrate degradation). As to conditions: 2.5 nM TREX2, 60 nM dsDNA substrate, 25 minutes at room temperature. On the procedure:
Degradation of the dsDNA liberates free fluorophore to produce a fluorescent signal. Specifically, 7.5 μL of N-terminally His-Tev tagged human TREX2 (residues M44-A279, expressed in E. coli and purified in house) in reaction buffer (50 mM Tris (pH 7.4), 150 mM NaCl, 2 mM DTT, 0.1 mg/mL BSA, 0.01% (v/v) Tween-20 and 100 mM MgCl2) was added to a 384-well Black ProxiPlate Plus (Perkin Elmer) which already contained compound (150 nL) at varying concentrations as a 10 point dose-response in DMSO. To this was added 7.5 μL of dsDNA substrate (Strand A: 5′ TEX615/GCT AGG CAG 3′; Strand B: 5′ CTG CCT AGC/IAbRQSp (IDT)) in reaction buffer. Final concentrations were 2.5 nM TREX2, 60 nM dsDNA substrate in reaction buffer with 1.0% DMSO (v/v). After 25 minutes at room temperature, reactions were quenched by the addition of 5 μL of stop buffer (same as reaction buffer plus 200 mM EDTA). Final concentrations in the quenched reaction mixture were […] TREX2, 45 nM DNA and 50 mM EDTA in a volume of 20 μL. After a 5-minute incubation at room temperature, plates were read in a laser sourced Envision (Perkin-Elmer), measuring fluorescence at 615 nm following excitation w/570 nm light. IC50 values were calculated by comparing the measured fluorescence at 615 nm ratio relative to control wells pre-quenched w/stop buffer (100% inhibition) and no inhibitor (0% inhibition) controls as using non-linear least square four parameter fits and either Genedata or GraphPad Prism (GraphPad Software, Inc.).

As for `CN(c1nc(C(=O)Nc2cncc(F)c2)c(O)c(=O)n1C)C(c1ccccc1)c1ccccc1` [Example 24, 2-(benzhydryl(methyl)amino)-N-(5-fluoropyridin-3-yl)-5-hydroxy-1-methyl-6-oxo-1,6-dihydropyrimidine-4-carboxamide], the figures for the IC50 in test [1] and in test [2] were 100 to 1000 nM and 1000 to 10000 nM, respectively.
In the same order, the values of `C=CCNC(=O)c1nc(N(C)C(c2ccccc2)c2ccccc2)n(C)c(=O)c1O` [Example 8, N-allyl-2-(benzhydryl(methyl)amino)-5-hydroxy-1-methyl-6-oxo-1,6-dihydropyrimidine-4-carboxamide] are 1000 to 10000 nM and 1000 to 10000 nM.
